Source: patent publication US20260240873A1, “USE OF C[…] THE TREATMENT OF TUBEROUS SCLEROSIS COMPLEX” (GW Research Limited, priority 2019, published 2026)

Columns and labels:
[1] = Double-blind, randomized, placebo-controlled trial: safety and tolerability (adverse events, ALT); format: in vivo, human; settings: for Patients with alanine aminotransferase (ALT) elevations >3 upper level of normal (ULN): none on placebo
Procedure: (§1) The blinded phase of the study was a randomized, double-blind, parallel-group, 16-week comparison of two doses of CBD versus placebo. Patients completed a 1-week screening period and a 4-week baseline period before they were randomized to receive 25 mg/kg/day CBD, 50 mg/kg/day CBD or equivalent volumes of placebo. Randomization was stratified by age according to the following ranges: 1-6, 7-11, 12-17 years and 18+ years.
Safety and tolerability measures that were recorded included: adverse events; clinical laboratory parameters; 12-lead electrocardiogram (ECG); physical examination parameters (including height and weight); vital signs; Columbia-Suicide Severity Rating Scale (C-SSRS; 19+ years) or C-SSRS Children's (6-18 years) score, where applicable; number of inpatient hospitalizations due to epilepsy; abuse liability and effects on menstruation cycles (in females).

seizures [2] = settings: 200 mg/day pure CBD; four adult patients; cited from earlier work
total seizures = assay: Double-blind, randomized, placebo-controlled trial: total seizure count; format: in vivo, human; settings: for Total seizure count, mean number of seizures per 28 days, treatment period: 16-week treatment period; for Total seizure count, mean number of seizures per 28 days, baseline period: baseline before treatment; for Reduction of seizures over the maintenance period (paragraph after the total seizure tables): 12-week maintenance period, placebo 30.1%
Procedure: as §1
(§2) Patients began a 4-week dose escalation period, titrating up to their assigned dose, before continuing on a stable dose of blinded investigational medicinal product (IMP) for 12 weeks.
(§3) Patients were required to perform daily interactive voice response system (IVRS) telephone calls to record seizure information. They were also required to complete a paper diary daily with information about IMP and concomitant AED administration.
(§4) change in Caregiver Global Impression of Change (CGIC) or Subject Global Impression of Change (SGIC) score; and change in total seizures.
(§5) In addition to the TSC-associated seizures (focal motor seizures without impairment of consciousness or awareness; focal seizures with impairment of consciousness or awareness; focal seizures evolving to bilateral generalized convulsive seizures and generalized seizures (tonic-clonic, tonic, clonic or atonic) that are countable) the total seizure count was recorded in the trial.

generalized epilepsy = settings: eight adult patients with generalized epilepsy; cited from earlier work
seizures [3] = settings: 200 mg/day pure CBD; twelve institutionalized adult patients; open label; cited from earlier work
seizures [4] = settings: mice; after pro-convulsant drugs or an electric current; cited from earlier work
TSC-associated seizures = assay: Double-blind, randomized, placebo-controlled trial: TSC-associated seizure frequency; format: in vivo, human; settings: for Mean number of TSC-associated seizures per 28 days, treatment period: 16-week treatment period, add-on to AEDs; for Mean number of TSC-associated seizures per 28 days, baseline period: 4-week baseline before treatment; for Reduction in TSC-associated seizures over the maintenance period: 12-week maintenance period, placebo 30%; for Patients who experienced a ≥50% reduction in seizures, number (%): placebo 17 (22.4%); for TSC-associated seizures, estimated ratio CBD/Placebo / TSC-associated seizures, percentage reduction CBD/Placebo: treatment period
Procedure: as §1, §2, §3
The primary endpoint was the change in number of TSC-associated seizures during the treatment period (maintenance and titration) compared to baseline in patients taking CBD compared with placebo.
as §5, with “TSC-associated” for “In addition to the TSC-associated”, “included: focal” for “(focal”, “countable.” for “countable) the total seizure count was recorded in the trial.”
Secondary endpoints included the number of patients considered treatment responders which was defined as those with a >50% reduction in TSC-associated seizure frequency;
Antiepileptic efficacy measures were also determined and these included: number of patients considered treatment responders defined as those with a ≥25%, ≥50%, ≥75% or 100% reduction in TSC-associated seizure frequency; number of patients experiencing a >25% worsening, −25 to +25% no change, 25-50% improvement, 50-75% improvement or >75% improvement in TSC-associated seizure frequency; change in number of TSC-associated seizure-free days; and change in number of ‘other’ seizures (absence, myoclonic, focal sensory and infantile/epileptic spasms).

[5] = Double-blind, randomized, placebo-controlled trial: Subject/Caregiver Global Impression of Change; format: in vivo, human; settings: for Subject/caregiver global impression of change: Much improved, number (%) / Subject/caregiver global impression of change: Much worse, number (%) / Subject/caregiver global impression of change: No change, number (%) / Subject/caregiver global impression of change: Slightly improved, number (%) / Subject/caregiver global impression of change: Slightly worse, number (%) / Subject/caregiver global impression of change: Very much worse, number (%) / Subject/caregiver global impression of change: Very much improved, number (%): data from last visit
Procedure: as §1, §4

[6] = CBD 25 mg/kg/day group (n = 75)
[7] = CBD 50 mg/kg/day group (n = 73)
[8] = CBD 50 mg/kg/day, treatment period, p-value 0.0018
[9] = CBD 25 mg/kg/day, p-value 0.0009
[10] = CBD 50 mg/kg/day, p-value 0.0018

Structure (SMILES): C=C(C)[C@@H]1CCC(C)=C[C@H]1c1c(O)cc(CCCCC)cc1O [CBD, cannabidiol]
- Incidence of diarrhoea, vomiting, transaminase elevations, somnolence, and rash ([1]; 50 mg/kg/day group compared to 25 mg/kg/day group): higher in the 50 mg/kg/day group
- Treatment emergent adverse event, maximal severity Mild, number (%) ([1]; CBD 25 mg/kg/day (n = 75)): 37 (49.3%)
- Treatment emergent adverse event, maximal severity Moderate, number (%) ([1]; CBD 25 mg/kg/day (n = 75)): 26 (34.7%)
- Treatment emergent adverse event, maximal severity Severe, number (%) ([1]; CBD 25 mg/kg/day (n = 75)): 7 (9.3%)
- Patients with alanine aminotransferase (ALT) elevations >3 upper level of normal (ULN) ([1]; CBD 25 mg/kg/day): 12%
- Treatment emergent adverse event, maximal severity Mild, number (%) ([1]; CBD 50 mg/kg/day (n = 73)): 29 (39.7%)
- Treatment emergent adverse event, maximal severity Moderate, number (%) ([1]; CBD 50 mg/kg/day (n = 73)): 35 (47.9%)
- Treatment emergent adverse event, maximal severity Severe, number (%) ([1]; CBD 50 mg/kg/day (n = 73)): 9 (12.3%)
- Patients with alanine aminotransferase (ALT) elevations >3 upper level of normal (ULN) ([1]; CBD 50 mg/kg/day): 25%
- Rate of ALT elevations ([1]; patients on concomitant valproic acid and on the higher dose of CBD): higher rate of ALT elevations
- Most common adverse reactions (≥10% and greater than placebo) ([1]; patients receiving CBD, 25 or 50 mg/kg/day): somnolence; decreased appetite; diarrhoea; vomiting; transaminase elevations; pyrexia; and infections
- Seizure freedom (seizures [2]): two of the four patients became seizure free
- Total seizures, estimated ratio Treatment period/Baseline period (total seizures; CBD 25 mg/kg/day (n = 75)): 0.519
- Total seizures, percentage reduction Treatment period/Baseline period (total seizures; CBD 25 mg/kg/day (n = 75)): 48.1%
- Total seizure count, mean number of seizures per 28 days, treatment period (total seizures; CBD 25 mg/kg/day (n = 75)): 28.0 per 28 days
- Total seizure count, mean number of seizures per 28 days, baseline period (total seizures; [6]): 53.9 per 28 days
- Reduction of seizures over the maintenance period (paragraph after the total seizure tables) (total seizures; CBD 25 mg/kg/day, p=0.0007): 55%
- Total seizures, estimated ratio CBD/Placebo (total seizures; CBD 25 mg/kg/day, treatment period, p-value 0.0013): 0.709
- Total seizures, estimated ratio Treatment period/Baseline period (total seizures; CBD 50 mg/kg/day (n = 73)): 0.524
- Total seizures, percentage reduction Treatment period/Baseline period (total seizures; CBD 50 mg/kg/day (n = 73)): 47.6%
- Total seizure count, mean number of seizures per 28 days, treatment period (total seizures; CBD 50 mg/kg/day (n = 73)): 39.6 per 28 days
- Total seizure count, mean number of seizures per 28 days, baseline period (total seizures; [7]): 75.7 per 28 days
- Reduction of seizures over the maintenance period (paragraph after the total seizure tables) (total seizures; CBD 50 mg/kg/day, p=0.0005): 55.9%
- Total seizures, estimated ratio CBD/Placebo (total seizures; [8]): 0.716
- Total seizures, percentage reduction CBD/Placebo (total seizures; [8]): 28.4%
- Total number of seizures (conclusion) (total seizures; both 25 and 50 mg/kg/day): significantly reduce
- Reduction of seizures (generalized epilepsy): marked reduction of seizures in 4 of the patients
- Control of seizures (seizures [3]): ineffective
- Prevention of seizures (seizures [4]): able to prevent seizures
- Patients with complete seizure freedom (100% reduction in TSC-associated seizure frequency) (TSC-associated seizures; CBD 25 mg/kg/day): 4 patients
- TSC-associated seizures, estimated ratio Treatment period/Baseline period (TSC-associated seizures; CBD 25 mg/kg/day (n = 75)): 0.514
- TSC-associated seizures, percentage reduction Treatment period/Baseline period (TSC-associated seizures; CBD 25 mg/kg/day (n = 75)): 48.6%
- Mean number of TSC-associated seizures per 28 days, treatment period (TSC-associated seizures; CBD 25 mg/kg/day (n = 75)): 26.5 per 28 days
- Mean number of TSC-associated seizures per 28 days, baseline period (TSC-associated seizures; [6]): 51.6 per 28 days
- Reduction in TSC-associated seizures over the maintenance period (TSC-associated seizures; CBD 25 mg/kg/day, p=0.0004): 55.8%
- Patients who experienced a ≥50% reduction in seizures, number (%) (TSC-associated seizures; CBD 25 mg/kg/day, p=0.0692): 27 (36.0%) patients
- TSC-associated seizures, estimated ratio CBD/Placebo (TSC-associated seizures; [9]): 0.699
- TSC-associated seizures, percentage reduction CBD/Placebo (TSC-associated seizures; [9]): 30.1%
- Patients with complete seizure freedom (100% reduction in TSC-associated seizure frequency) (TSC-associated seizures; CBD 50 mg/kg/day): 2 patients
- TSC-associated seizures, estimated ratio Treatment period/Baseline period (TSC-associated seizures; CBD 50 mg/kg/day (n = 73)): 0.525
- TSC-associated seizures, percentage reduction Treatment period/Baseline period (TSC-associated seizures; CBD 50 mg/kg/day (n = 73)): 47.5%
- Mean number of TSC-associated seizures per 28 days, treatment period (TSC-associated seizures; CBD 50 mg/kg/day (n = 73)): 34.9 per 28 days
- Mean number of TSC-associated seizures per 28 days, baseline period (TSC-associated seizures; [7]): 66.3 per 28 days
- Reduction in TSC-associated seizures over the maintenance period (TSC-associated seizures; CBD 50 mg/kg/day, p=0.0005): 55.8%
- Patients who experienced a ≥50% reduction in seizures, number (%) (TSC-associated seizures; CBD 50 mg/kg/day, p=0.0245): 29 (39.2%) patients
- TSC-associated seizures, estimated ratio CBD/Placebo (TSC-associated seizures; [10]): 0.715
- TSC-associated seizures, percentage reduction CBD/Placebo (TSC-associated seizures; [10]): 28.5%
- Number of TSC-associated seizures (conclusion) (TSC-associated seizures; both 25 and 50 mg/kg/day): significantly reduce
- Subject/caregiver's global impression of change (conclusion) ([5]; 25 mg/kg/day group): significant efficacy
- Subject/caregiver global impression of change: Much improved, number (%) ([5]; CBD 25 mg/kg/day): 12 (18.2%)
- Subject/caregiver global impression of change: Much worse, number (%) ([5]; CBD 25 mg/kg/day): 2 (3.0%)
- Subject/caregiver global impression of change: No change, number (%) ([5]; CBD 25 mg/kg/day): 14 (21.2%)
- Subject/caregiver global impression of change: Slightly improved, number (%) ([5]; CBD 25 mg/kg/day): 23 (34.8%)
- Subject/caregiver global impression of change: Slightly worse, number (%) ([5]; CBD 25 mg/kg/day): 4 (6.1%)
- Subject/caregiver global impression of change: Very much worse, number (%) ([5]; CBD 25 mg/kg/day): 1 (1.5%)
- Subject/caregiver global impression of change: Very much improved, number (%) ([5]; CBD 25 mg/kg/day, overall p-value 0.0074): 10 (15.2%)
- Subject/caregiver global impression of change: Much improved, number (%) ([5]; CBD 50 mg/kg/day): 12 (18.2%)
- Subject/caregiver global impression of change: Much worse, number (%) ([5]; CBD 50 mg/kg/day): 3 (4.5%)
- Subject/caregiver global impression of change: No change, number (%) ([5]; CBD 50 mg/kg/day): 14 (21.2%)
- Subject/caregiver global impression of change: Slightly improved, number (%) ([5]; CBD 50 mg/kg/day): 21 (31.8%)
- Subject/caregiver global impression of change: Slightly worse, number (%) ([5]; CBD 50 mg/kg/day): 6 (9.1%)
- Subject/caregiver global impression of change: Very much worse, number (%) ([5]; CBD 50 mg/kg/day): 1 (1.5%)
- Subject/caregiver global impression of change: Very much improved, number (%) ([5]; CBD 50 mg/kg/day, overall p-value 0.0580): 9 (13.6%)
